From patent US20140088006A1, “Stem Cell Mobilization and Tissue Repair and Regeneration” (Wellstat Therapeutics Corporation, priority 2011, published 2014)
Where “and” joins values, the source holds several entries; their conditions need not be identical. Identical values can stand only once. No end group written: not given here.

Legend:
[1] = system: white blood cells in peripheral blood; experiment: White blood cell number after 4 daily subcutaneous injections; format: in vivo, C57Bl/6 male mice; design: White blood cell number in peripheral blood: unit not given here; conditions: for White blood cell number in peripheral blood: 1 hr after injection
Description: This example is based on a protocol for a 4-day course of once-daily Compound X injections into C57Bl/6 male mice similar to G-CSF. Two effective dose levels of Compound X were found previously to mobilize HSC 1 hr after single injection and were selected for this experiment. Four-month old C57Bl/6 male mice (Jackson Laboratories) were subcutaneously injected with 0.9% saline, 125 μg/kg Compound X or 250 μg/kg Compound X on days 1, 2, 3 and 4 as described in Table 4. Each day, one-hour post injections, peripheral blood from 3 mice per group was harvested from the orbital plexus into EDTA-containing tubes. On day 4, a femur and spleen were also removed from mice to assess by FACS whether any toxicity aroused from repeated injections of Compound X.
As in the previous example to determine mobilization of colony-forming cells out of the bone marrow, mononuclear cells from peripheral blood were plated into MethoCult 3434 media (Stem Cell Technologies). Briefly, after white blood cell counting, the remaining peripheral blood was diluted (1:1, v/v) with 0.9% saline (APP Pharmaceutical) and layered (2:1, v/v) onto 1-Step™1.077 A (Accurate Chemicals) in 15-ml centrifuge tubes. Cells were centrifuged at 600×g for 20 min at room temperature. The mononuclear cells were harvested from the interface between the plasma layer and the 1-Step™ A solution using a 1-ml syringe and blunt-end needle. The cells were transferred to 15-ml centrifuge tubes and washed twice in 1×PBS. Cells were resuspended in 1 ml of IMDM and cell counts were obtained using the Coulter counter. Cells were placed into 35-mm Petri dishes at 200,000 cells per dish with 5 dishes per group. Cells incubated for 10 days in a 37° C. and 5% CO2 humidified incubator. CFU colonies were then scored using an inverted microscope—CFU-GM detected on day 7 and CFU-GEMM—on day 10. Data presented in Tables 7, 8 and 9, FIGS. 3 and 4.

[2] = system: full-thickness cutaneous wounds; experiment: Excisional wound healing model in db/db mice; format: in vivo; design: Wound area measurements, Day 14: unit not given here; conditions: for Wound healing rate: individual mice; for Wound healing rate / Wound area measurements, Day 14 / Wound area, Percent of original size: 5 mg/kg; for Wound area measurements, Day 14 / Wound area, Percent of original size: individual wounds
Description: The average time to wound closure between db/db mice and non-diabetic C57BL6 mice was compared in a pilot experiment. Paired 6-mm full-thickness cutaneous wounds were made on the dorsa of mice after depilation with a sterile Miltex biopsy punch (VWR #21909-144). To prevent wound contraction during the healing process, 0.5 g/mL polyisobutyl methacrylate (Sigma #445754) in toluene (Sigma #244511) was applied over wounds 24 hours after wounding. After methacrylate hardened, a transparent dressing (Tagaderm, Lab Safety Supply #53379) was placed over wounds. Two groups of mice (5 mice per group) received intravenous injections of either Vehicle or Compound X (5 mg/kg) starting on day one post wounding and continuing daily for four consecutive days at Zeitgeber time 4 (ZT4), 4 hr after onset of light to time mobilization of stem cells with circadian oscillations (Frenette et. al. 2008).
Digital photographs of the wounds were taken on days 0, 7, 10 and 14. Wound areas were measured by manually tracing the border of unhealed area and quantified as a percent area of the original wound size. The size of the traced area was calculated automatically using the Image J (NIH) analysis program. The following calculation was used to determine the wound healing rate: (Area of original wound−Area of remaining wound)÷Area of original wound×100. […]
In the next experiment, 2 groups of db/db mice (6 mice per group) received paired 6-mm full-thickness cutaneous wounds. Mice then received intravenous injections of either Vehicle or Compound X (5 mg/kg) starting on day one post wounding and continuing daily for four consecutive days at ZT4. Wounds were monitored until complete closure in control group on day 21. To limit wound contraction during the healing process, a donut shaped silicone splint was centered on the wound and glued (cyanoacrylate adhesive) to the skin.
Ten mice were treated per group with 3 mice from each group being sacrificed for histology at day 10 post-wounding. Wound closure in the Compound X treated group was mostly achieved by the 14th day, while control wounds were closed between days 18-21 post-wounding. […] This was similar to data generated in previous experiments.

[3] = i.v. 5 mg/kg daily for 4 days, Day 7
[4] = i.v. 5 mg/kg daily for 4 days, Day 10
[5] = second experiment, i.v. 5 mg/kg daily for 4 days, 14 days post-wounding

“FPHFDLSHGSAQV [Compound X, tridecapeptide that acts on stem cells]” was tested, and the “White blood cell number in peripheral blood” value ([1]; 125 μg/kg s.c. daily, Day 1) was 7.4, the “White blood cell number in peripheral blood” value ([1]; 125 μg/kg s.c. daily, Day 2) was 8.8 and the “White blood cell number in peripheral blood” value ([1]; 125 μg/kg s.c. daily, Day 3) was 6.0. For the same sequence, the “White blood cell number in peripheral blood” value ([1]; 125 μg/kg s.c. daily, Day 4) was 8.6, the “White blood cell number in peripheral blood” value ([1]; 250 μg/kg s.c. daily, Day 1) was 8.6 and the “White blood cell number in peripheral blood” value ([1]; 250 μg/kg s.c. daily, Day 2) was 8.2. The “White blood cell number in peripheral blood” value ([1]; 250 μg/kg s.c. daily, Day 3) was 10.2, the “White blood cell number in peripheral blood” value ([1]; 250 μg/kg s.c. daily, Day 4) was 9.2 and the “White blood cell number” value ([1]; multiple daily injections, 125 and 250 μg/kg) was “did not change”. For the same sequence, the “Wound healing rate, Average” value [2, 3] was 14.22%, the Wound healing rate [2, 3] was 5.14% and 6.40% and 7.85% and 8.83% and 42.89% and the “Wound healing rate, Average” value [2, 4] was 38.68%. The Wound healing rate [2, 4] was 17.47% and 13.96% and 65.36% and 17.51% and 79.10%, the wound closure ([2]; i.v. 5 mg/kg daily for 4 days, ten days after wounding) was 39% and the “Wound area measurements, Day 14” value ([2]; second experiment (6 mice per group, silicone splint), i.v. 5 mg/kg daily for 4 days) was 5865 and 19152 and 50090 and 21199 and 49486 and 3603 and 24952 and 59032 and 74676 and 52782 and 11094 and 58870. For the same sequence, the “Wound area, Percent of original size, Average” value [2, 5] was 8.05%, the “Wound area, Percent of original size” value [2, 5] was 1.11% and 5.19% and 10.08% and 7.02% and 10.48% and 0.82% and 4.45% and 12.48% and 14.28% and 13.38% and 2.48% and 14.93% and the “Wound area measurements, Day 14” value ([2]; third experiment (ten mice per group), i.v. 5 mg/kg) was 4104 and 24930 and 972 and 100098 and 7440 and 2808 and 324 and 78 and 180 and 21924 and 53715 and 22554 and 20406 and 168663. For the same sequence, the “wounds closed by day 14 (95%-100% closure)” value ([2]; third experiment, i.v. 5 mg/kg) was 11 of 14, the “Wound area, Percent of original size” value ([2]; third experiment, i.v. 5 mg/kg, 14 days post-wounding) was 0.83% and 5.59% and 0.19% and 18.81% and 1.56% and 0.61% and 0.06% and 0.02% and 0.03% and 4.11% and 10.3% and 5.11% and 5.24% and 29.82% and the “time to wound closure” value ([2]; third experiment, i.v. 5 mg/kg, control closed between days 18-21) was no more than 14 days.
